Assay results reported in patent US20210024499A1, “OXIDIZED BIS(3-INDOLYL)METHANES AND USES THEREOF” (Sanford Burnam Prebys Medical Discovery Institute, priority 2018, published 2021).
“And” between values parts separate entries of the source, which are not always exact repeats. Equal entries are not always repeated.

How the values were obtained:
Bcl-2−/−HeLa cells [1] = test: Annexin V/PI staining, Bcl-2 knockout HeLa; assay type: cell-based
Experimental: (§1) Knocking out Nur77 and Bcl-2 from HeLa cells employed the CRISPR/Cas9 system. gRNA targeting sequence of Nur77 (5′-[…]-3′) and Bcl-2 (5′-[…]-3′) was cloned into gRNA cloning vector Px330 (Addgene, 71707) and confirmed by sequencing. To screen for cells lacking Nur77 or Bcl-2, HeLa cells were transfected with control vector and gRNA expression vectors, followed by G418 selection (0.5mg/m1). Single colonies were subjected to Western blotting using anti-Nur77 and anti-Bcl-2 antibody to select knockout cells.
(§2) The apoptotic effect of Compound lwas also evaluated in Bcl-2 genome knockout HeLa cells generated by CRISPR/Cas9 technology (Example A-5).

SW480 cells [2] = test: PARP cleavage assay (Western blotting), SW480; assay type: cell-based; conditions: 6 hours
Source text: Compound 1a had no effect under the same conditions (FIG. 1A). […] Compound 1a, 28a, 47a, 48a, 73a, 39a, 70a, 103a, 89a and 88a had no effect under the same conditions (FIG. 3B-C).

Bcl-2−/−MEF cells = test: Mitochondrial ROS, Bcl-2-/- MEF; assay type: cell-based, mouse
Experimental: (§3) Loss of mitochondrial membrane potential (Avm) represents one of the hallmarks of apoptosis. A JC-1 probe was employed to measure mitochondrial depolarization in cancer cells. MDA-MB-231 breast cancer cells were treated with different concentration of test compounds for 6 hours. JC-1 staining solution (5 μg/ml) was added at 37° C. for 20 min. After washing with PBS twice, mitochondrial membrane potentials were monitored by determining the relative amounts of dual emission from a multiple fluorescence reader. The fluorescence in cells was quantitatively analyzed by flow cytometry. Mitochondrial depolarization is depicted by an increase in the green/red fluorescence intensity ratio. ROS were monitored with the oxiadtion-senstive fluorescent probe 2′7′-dichlorodihydroflurescenin diacetate (DCF-DA).
In addition, Bcl-2^−/−MEF cells were more resistant than the parental MEF cells to Compound 1 in its induction of the mitochondrial membrane potential loss measured by JC1 staining and in the release of mitochondrial ROS (as performed in Example A-12).

parental HeLa cells = test: Annexin V/PI staining, parental HeLa; assay type: cell-based; conditions: methanesulfonate
Bcl-2−/− HeLa cells = test: Mitochondrial ROS, Bcl-2 knockout HeLa; assay type: cell-based
Experimental: as §3
(§4) In addition, Bcl-2^−/−HeLa cells were more resistant than the parental HeLa cells to Compound 1 in its induction of the mitochondrial membrane potential loss measured by JC1 staining and in the release of mitochondrial ROS (as performed in Example A-12).

SW480 cells [3] = test: DAPI staining for apoptosis, SW480; assay type: cell-based; conditions: 0.5 μM, 6 hours, counted in 200 cells
Experimental: In SW480 cells, about 60% apoptotic cells were detected when cells were treated with Compound 1 compared to less than 5% when cells were not treated with Compound 1. Apoptotic cells were counted in 200 cells.

Bcl-2−/−HeLa cells [4] = test: PARP cleavage and caspase 3 activation, Bcl-2 knockout HeLa; assay type: cell-based
Experimental: as §1, §2

Bcl-2−/−MEFs = test: PARP cleavage, Bcl-2-/- MEFs; assay type: cell-based, mouse; conditions: 0.5 μM
Source text: The apoptotic effect of Compound 1 was also examined in mouse embryonic fibroblast (MEF) and MEF lacking Bcl-2 (Bcl-2^−/−MEF). […] Apoptotic cells were counted in 200 cells.

Nur77 [5] = target: T1, Nur77 (Homo sapiens, UniProt P22736); test: Immunostaining of Nur77 localization, HCT116; assay type: cell-based; conditions: HCT116 cells, 0.5 μM, 2 hours
T1 construct: expressed in transfected cells
T1 sequence (P22736 whole entry): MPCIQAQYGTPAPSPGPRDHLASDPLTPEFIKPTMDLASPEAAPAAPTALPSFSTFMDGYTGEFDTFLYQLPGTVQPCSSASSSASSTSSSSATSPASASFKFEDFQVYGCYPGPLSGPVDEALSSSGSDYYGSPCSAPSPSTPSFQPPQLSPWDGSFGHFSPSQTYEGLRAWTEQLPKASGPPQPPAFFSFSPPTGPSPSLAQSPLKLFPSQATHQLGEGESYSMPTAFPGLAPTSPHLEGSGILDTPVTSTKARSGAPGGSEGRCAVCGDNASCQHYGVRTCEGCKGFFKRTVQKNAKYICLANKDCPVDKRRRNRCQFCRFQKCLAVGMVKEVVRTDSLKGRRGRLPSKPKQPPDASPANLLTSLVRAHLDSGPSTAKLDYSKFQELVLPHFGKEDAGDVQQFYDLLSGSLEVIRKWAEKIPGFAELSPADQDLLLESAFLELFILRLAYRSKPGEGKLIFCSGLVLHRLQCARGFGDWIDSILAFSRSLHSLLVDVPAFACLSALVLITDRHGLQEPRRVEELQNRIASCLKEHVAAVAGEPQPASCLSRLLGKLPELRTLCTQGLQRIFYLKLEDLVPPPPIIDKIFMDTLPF
Experimental: Cells were fixed in 3.7% paraformaldehyde. For mitochondrial staining, cells were incubated with anti-Hsp60 goat immunoglobulin G (IgG) (Santa Cruz Biotechnology, Santa Cruz, Calif.), followed by anti-goat IgG conjugated with Cy3. The nuclei were visualized by DAPI staining. Fluorescent images were collected and analyzed by using a fluorescence microscopy or MRC-1024 MP laser-scanning confocal microscope (Bio-Rad, Hercules, Calif.).
To confirm the effect of Compound 1 on Nur77 cytoplasmic localization, HEK293T cells were transfected with GFP-Nur77 and subsequently treated with 0.5 μM Compound 1.

Nur77 [6] = target: T1, Nur77; test: Nur77 expression and mitochondrial targeting with BI2030, HeLa; assay type: cell-based; conditions: HeLa cells
Source text: To further characterize the effect of Compound 1 on promoting Nur77 mitochondrial targeting, we investigated the effect of Compound 1 in combination with BI2030 on Nur77 mitochondrial targeting and apoptosis induction. […] When Compound 1 and B12030 were used together, most of the BI2030-induced Nur77 protein was found in the heavy membrane fraction, and formed punctate structure in the cytoplasm, as visualized by confocal microscopy.

HCT116 cancer cells = test: Apoptosis assay, Annexin V-FITC/propidium iodide flow cytometry; assay type: cell-based; conditions: Homo sapiens, HCT-116, 6 hours, Annexin V-FITC/PI flow cytometry (Table 4)
Experimental: HCT116 cancer cells plated at a density of 1×10^6 per well on six-well plates were treated with different concentration of test compounds for 6 hours, and then the suspension and the adherent cells were collected, stained with Annexin V-FITC for 15 minutes and with propodium iodide for 5 minutes, and analyzed immediately by cytoFLEX Flow Cytometry System (Beckman-Coulter, Miami, Fla., USA) using FITC and PC5.5 (Table 4).

Bcl-2−/−HeLa cells [7] = test: Mitochondrial membrane potential (JC1), Bcl-2 knockout HeLa; assay type: cell-based; conditions: 0.5 μM, 6 h
Experimental: as §3, §4

[8] = test system: Nur77 and pBind-RXRa-LBD-E453,6A; test: Mammalian one hybrid assay, RXRa-LBD/E453,6A mutant with Nur77; assay type: cell-based; conditions: cells transfected with Nur77 and pBind-RXRa-LBD-E453,6A
Experimental: HEK293T cells were co-transfected with pG5 Luciferase reporter together with the plasmid encoding RXRa-LBD fused with the Gal4 DNA-binding domain and other expression plasmids. After transfection, cells were treated with DMSO or a test compound, and assayed by using the Dual-Luciferase Reporter Assay System (Promega). Transfection efficiency was normalized to Renilla luciferase activity.
To exclude the possibility that Compound 1 acted on RXRa, Glu453 and Glu456 in the RXRa activation function 2 (AF2) region were substituted with Ala and the resulting mutant, RXRa-LBD/E453,6A, was used.

- Nur77 subcellular localization (immunostaining) (Nur77 [5]): predominantly cytoplasmic
- induction of Nur77 expression (Nur77 [6]; Compound 1 0.5 μM, BI2030 1 μM, 2 hours (FIG. 5)): incapable of inducing Nur77 expression
- IC50 (HCT116 cancer cells): < 500 nM
SMILES: FC(F)(F)c1ccc([C+](c2c[nH]c3ccccc23)c2c[nH]c3ccccc23)cc1 [Compound 1, Bis(1H-indol-3-yl)(4-(trifluoromethyl)phenyl)methylium methanesulfonate]
- apoptotic effect (Annexin V/PI staining) (Bcl-2−/−HeLa cells [1]): 7.95%
- concentration inducing PARP cleavage (dose dependent study) (SW480 cells [2]): submicromolar concentrations
- increase in mito-ROS relative to regular MEF cells (Bcl-2−/−MEF cells): smaller increase
- apoptotic effect (Annexin V/PI staining) (parental HeLa cells): 35.55% and 24.59%
- increase in mito-ROS relative to regular HeLa cells (Bcl-2−/− HeLa cells): smaller increase
- apoptotic cells (DAPI staining) (SW480 cells [3]): about 60%
- induction of PARP cleavage and caspase 3 activation (Bcl-2−/−HeLa cells [4]): strongly suppressed
- PARP cleavage (Bcl-2−/−MEFs): no apparent effect
- Nur77 mitochondrial accumulation / targeting (Nur77 [6]; heavy membrane fraction, Compound 1 tested together with BI2030): able to induce mitochondrial targeting of BI2030-induced Nur77 protein
- JC1 green to red ratio (Bcl-2−/−HeLa cells [7]): no change
- reporter transcriptional activity [8]: could still activate the reporter gene transcription
